Measurements: US9879043B1, “Synthesis of non-natural cofactor analogs of S-adenosyl-L-methionine using methionine adenosyltransferase” (University of Kentucky Research Foundation, priority 2013, dated 2018)

Tests used:
Assay type in all cases: biochemical
[1] = target: T1, Sulfolobus solfataricus MAT (sMAT) (Saccharolobus solfataricus, UniProt Q980S9); conditions: ADP in place of ATP, 65° C. for 4 hr, standard assay conditions
T1 sequence (Q980S9 1-404): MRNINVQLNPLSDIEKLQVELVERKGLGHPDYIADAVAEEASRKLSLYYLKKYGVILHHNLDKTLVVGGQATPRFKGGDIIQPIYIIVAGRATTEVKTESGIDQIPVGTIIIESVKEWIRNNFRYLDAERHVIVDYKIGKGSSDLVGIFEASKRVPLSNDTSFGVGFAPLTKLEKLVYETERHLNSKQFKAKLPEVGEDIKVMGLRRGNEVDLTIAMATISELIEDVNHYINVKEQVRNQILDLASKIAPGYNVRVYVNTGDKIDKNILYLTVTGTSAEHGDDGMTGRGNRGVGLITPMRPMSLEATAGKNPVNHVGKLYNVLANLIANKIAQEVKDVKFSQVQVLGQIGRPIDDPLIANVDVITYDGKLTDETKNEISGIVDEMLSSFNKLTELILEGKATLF

[2] = target: T1, Sulfolobus solfataricus MAT (sMAT); conditions: 2 mM analog, 1 mM ATP, 5 μM sMAT, pH 8.0, 4 h at 65° C.; average of two assays
Experimental: In-vitro sMAT assay: In vitro sMAT reactions were conducted in a volume of 50 μl with 2 mM S/Se-alkylated analog, 1 mM ATP and 5 μM purified sMAT in 25 mM Tris buffer pH 8.0, 5 mM MgCl2, 50 mM KCl for 4 h at 65° C. Reactions were quenched by adding an equal volume of methanol followed by centrifugation (10,000×g for 15 min) to remove the precipitated protein and product formation for each reaction was subsequently analyzed by reverse phase HPLC (RP-HPLC) using method described below. For each reaction, percent yield was based upon the integration of species at 254 nm and calculated by dividing the integrated area of product and/or decomposed product by the sum of integrated area of product and/or decomposed product and the remaining substrate. The assays were repeated twice under identical conditions, and Table 4 (and FIG. 17) represents an average value of two assays. The inclusion of adenine and 5′-R-thio-5′-adenosine in these calculations is based upon the established SAM and ATP chemical decomposition pathways which indicate adenine and 5′-R-thio-5′-adenosine to only derive from SAM (not ATP). All putative products were subsequently confirmed by high resolution electrospray ionization (ESI) mass spectra with positive (+) and/or negative (−) mode.
RP-HPLC method: Reactions were quenched by the addition of equal volume of methanol followed by centrifugation at 10,000 g for 15 min to remove precipitated protein before applying on an analytical Varian ProStar HPLC [Luna C18 column, 5 μm, 4.6 mm×250 mm; Phenomenex, Torrance, Calif., USA; gradient of 10% B to 40% B over 15 min, 40% B to 75% B over 5 min (A=10 mM NaH2PO4, 5 mM octane sulfonic acid, pH was adjusted to 3.5 using phosphoric acid; B=acetonitrile) flow rate=1 mL min^−1; A254].

[3] = target: T2, Methanocaldococcus jannaschii MAT (mMAT) (Methanocaldococcus jannaschii, UniProt Q58605); conditions: 2 mM Met analog, 1 mM ATP, 5 μM MAT, pH 8, 4 h, 65° C.; average of two assays
T2 sequence (Q58605 1-406): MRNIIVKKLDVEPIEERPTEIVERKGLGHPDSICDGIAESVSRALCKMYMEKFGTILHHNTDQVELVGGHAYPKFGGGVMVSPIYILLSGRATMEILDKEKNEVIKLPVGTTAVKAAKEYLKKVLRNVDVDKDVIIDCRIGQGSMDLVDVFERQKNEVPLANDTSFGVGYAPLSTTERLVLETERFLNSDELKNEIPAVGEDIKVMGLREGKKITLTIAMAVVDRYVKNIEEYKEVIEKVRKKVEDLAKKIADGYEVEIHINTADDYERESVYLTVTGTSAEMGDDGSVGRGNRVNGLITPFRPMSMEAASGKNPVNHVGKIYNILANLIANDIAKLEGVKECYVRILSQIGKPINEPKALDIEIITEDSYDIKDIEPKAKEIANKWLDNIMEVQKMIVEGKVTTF
Experimental: (§1) Standard uniform assay conditions (2 mM Met analog, 1 mM ATP, 5 μM MAT, 25 mM Tris, 5 mM MgCl2, 50 mM KCl, pH 8, 4 h) were adopted to facilitate this broad assessment. For the thermophilic counterpart (mMAT), reactions were conducted at 65° C., while all other reactions were incubated at 37° C. Production of SAM analogs was determined by an RP-HPLC end point assay to afford complete analysis of the desired SAM analog and/or any corresponding degradation products known to directly derive from the desired SAM analog intermediate.
(§2) To monitor MAT reactions, analytical RP HPLC employed a Luna C18 column (5 μm, 4.6 mm×250 mm; Phenomenex, Torrance, Calif., USA) [gradient of 10% B to 40% B over 15 min, 40% B to 75% B over 5 min (A=10 mM NaH2PO4, 5 mM octane sulfonic acid, pH was adjusted to 3.5 using phosphoric acid; B=acetonitrile) flow rate=1 mL min^−1; A254].
(§3) The sMAT and mMAT reactions were conducted at 65° C. while hMATs and eMAT were incubated at 37° C. Reactions were quenched by adding an equal volume of methanol followed by centrifugation (10,000×g for 15 min) to remove the precipitated protein and product formation for each reaction was subsequently analyzed by RP-HPLC using Method D (FIG. 15, first column). For each reaction, percent yield was based upon the integration of species at 254 nm and calculated by dividing the integrated area of product and/or decomposed product by the sum of integrated area of product and/or decomposed product and the remaining substrate. The assays were repeated twice under identical conditions, and Table 2 (and FIG. 5) represents an average value of two assays. The inclusion of adenine and 5′-R-thio-5′-adenosine in these calculations is based upon the established SAM and ATP chemical decomposition pathways which indicate adenine and 5′-R-thio-5′-adenosine to only derive from SAM (not ATP). All putative products were subsequently confirmed by high resolution electrospray ionization (ESI) mass spectra with positive (+) and/or negative (−) mode.

[4] = target: human MAT II catalytic alpha and regulatory beta subunit (hMAT2) (Homo sapiens, UniProt P31153); test: MAT assay, turnover of S/Se-Met analogs to S(Se)AM analogs (RP-HPLC end point); conditions: 2 mM Met analog, 1 mM ATP, 5 μM MAT, pH 8, 4 h, 37° C.; average of two assays
Experimental: as §1, §2, §3

[5] = target: human MAT II catalytic alpha subunit alone (hMAT2A) (Homo sapiens, UniProt P31153); test: as above; conditions: 2 mM Met analog, 1 mM ATP, 5 μM MAT, pH 8, 4 h, 37° C.; average of two assays
Experimental: as §1, §2, §3

[6] = target: human MAT I catalytic subunit alpha (hMAT1A) (Homo sapiens, UniProt Q00266); test: as above; conditions: 2 mM Met analog, 1 mM ATP, 5 μM MAT, pH 8, 4 h, 37° C.; average of two assays
Experimental: as §1, §2, §3

[7] = target: Escherichia coli MAT (eMAT) (Escherichia coli, UniProt P0A817); test: as above; conditions: 2 mM Met analog, 1 mM ATP, 5 μM MAT, pH 8, 4 h, 37° C.; average of two assays
Experimental: as §1, with “intermediate. Putative SAM analog and SAM-derived degradative product formation was subsequently confirmed via high-resolution mass spectrometry (HRMS) analysis for all positive reactions (see Table 2).” for “intermediate.”
as §2
as §3, with “In vitro MAT reactions were conducted in a volume of 50 μl with 2 mM S/Se-alkylated analog (compounds 2-30), 1 mM ATP and 5 μM purified MAT in 25 mM Tris buffer pH 8.0, 5 mM MgCl2, 50 mM KCl for 4 h. The sMAT” for “The sMAT”

Compound | product formation from ADP and methionine [1] | Percentage Turn-Over (sMAT) [2] | Percentage Turn-over mMAT [3] | Percentage Turn-over hMAT2 [4] | Percentage Turn-over hMAT2A [5] | Percentage Turn-over hMAT1A [6] | Percentage Turn-over eMAT [7]
Nc1ncnc2c1ncn2[C@@H]1O[C@H](COP(=O)(O)OP(=O)(O)O)[C@@H](O)[C@H]1O [ADP] | no detectable product | – | – | – | – | – | –
[N-]=[N+]=NC/C=C/CSCC[C@H](N)C(=O)O [compound 23, (2S)-2-amino-4-{[(2E)-4-azidobut-2-en-1-yl]sulfanyl}butanoic acid] | – | 28% | 32% | 12% | 5% | 2% | 0%
